# From patent publication US9464064B2, “HCV helicase inhibitors and methods of use thereof” (University of Kansas, priority 2011, dated 2016)
# Assays:
# [1] = target: T1, HCV NS3 helicase NS3h_1b(con1) (Hepatitis C virus genotype 1b, UniProt Q9WMX2); assay: biochemical; type: biochemical, hepatitis C virus genotype 1b(con1); settings: MBHA, DNA unwinding; mean ± SD of three titrations; read-out: Helicase IC50
# T1 construct: truncated C-terminally His-tagged NS3 proteins lacking the N-terminal protease, called NS3h; His-tag (C); made in house
# T1 sequence (Q9WMX2 1192-1657): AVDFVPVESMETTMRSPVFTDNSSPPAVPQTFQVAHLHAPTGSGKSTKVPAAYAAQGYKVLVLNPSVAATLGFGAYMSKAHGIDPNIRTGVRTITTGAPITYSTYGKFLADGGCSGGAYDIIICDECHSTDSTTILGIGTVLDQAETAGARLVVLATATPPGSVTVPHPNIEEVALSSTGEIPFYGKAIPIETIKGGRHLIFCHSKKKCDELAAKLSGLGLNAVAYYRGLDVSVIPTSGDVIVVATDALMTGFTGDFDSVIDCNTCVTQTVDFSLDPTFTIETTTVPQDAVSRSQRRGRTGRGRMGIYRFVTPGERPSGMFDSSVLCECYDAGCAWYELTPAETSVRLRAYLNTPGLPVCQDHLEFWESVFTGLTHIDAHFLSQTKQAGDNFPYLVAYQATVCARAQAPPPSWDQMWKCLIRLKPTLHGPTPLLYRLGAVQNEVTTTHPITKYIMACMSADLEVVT
# Source text: All oligonucleotides were purchased from Integrated DNA Technologies (IDT, Coralville, Iowa). The partially duplex DNA substrates used in MBHAs consisted of a helicase substrate forming 25 base pairs and consists of a 45-mer bottom strand 5′-GCTCCCCGTTCATCGATTGGGGAGC(T)20-3′ (SEQ ID NO:1) and the 25-mer HCV top strand 5′-Cy5-GCTCCCCAATCGATGAACGGGGAGC-IBRQ-3′ (SEQ ID NO:2). The 19 base pair RNA substrate used in MBHAs was composed of a 39 nucleotide long bottom strand 5′-AGU GCC UUG ACG AUA CAG C(U)20-3′ (SEQ ID NO:3) and the 24 nucleotide long top strand 5′-Tye^665-AGUGCGCUGUAUCGUCAAGGCACU-IBRQSp-3′ (SEQ ID NO:4). Underlined areas denote hairpin-forming regions. DNA and RNA substrates were annealed and purified as described previously (Belon & Frick (2008) BioTechniques 45:433-40, 442).
# The cloning, expression, and purification of His-tagged recombinant HCV NS3 protein have been described previously (Lam, et al. (20030 J. Virol. 77:3950-61; Heck, et al. (2008) Antimicrob. Agents Chemother. 52:1901-11; Frick et al. (2010) Methods Mol. Biol. 587:223-233; Belon, et al. & Frick (2009) J. Mol. Biol. 388:851-864).
# All molecular beacon-based helicase assays (MBHAs) were performed according to known methods (Belon & Frick (2008) supra; Belon & Frick (2009) supra). […] In each flat, black 384-well plate, 56 compounds were tested, in triplicate, along with three negative controls (DMSO only), three positive controls (500 nM dT20), and two wells with no enzyme. Fluorescence was read before ATP (F0) addition and 30 minutes after ATP was added to 1 mM (F30) using a Tecan Infinite M200 fluorescence microplate reader with excitation and emission wavelengths set to 643 and 670 nm, respectively. Percent inhibition was calculated with equation 1, and compound interference in the MBHA was calculated with equation 2.
# To monitor helicase reaction kinetics and to calculate IC50 values, MBHAs were performed in 60 μL in white ½ area 96-well plates and measured in a Thermo Varioscan Multimode reader (Thermo Scientific) using the 643 nm excitation wavelength and 667 emission wavelengths. Reactions were again performed by first incubating all components except for ATP for two minutes, then initiated by injecting in 1/10 volume of ATP such that the final concentration of all components was as noted above. Conditions were as described above except that 5% v/v DMSO was present in each assay. Initial reaction velocities were calculated by fitting first-order decay equation to data obtained after ATP addition and calculating an initial velocity form the resulting amplitude and rate constant.
# [formula] where, v0 is the velocity observed in DMSO-only controls inhibition, h is the Hillslope coefficient, [I] is the concentration of test compound.
# MBHA DNA substrate = assay: Fluorescent intercalation displacement (FID) assay, ethidium bromide; type: binding; settings: ethidium bromide FID; read-out: IC50 in FID assays (positive control)
# Procedure: Fluorescent intercalation displacement (FID) assays (Boger, et al. (2001) J. Am. Chem. Soc. 123:5878-5891) were used to measure the ability of a compound to bind the MBHA substrate. The concentration at which half the ethidium bromide is displaced (EC50) was determined using the different conditions as above to more closely mimic the conditions of a standard helicase assay. Each 100 μL reaction contained 25 mM MOPS pH 6.5, 0.16 μM MBHA DNA substrate (lacking Cy5 and IBQ-RQ modifications), 2 μM ethidium bromide, and various concentrations of test compound. Fluorescence of ethidium bromide was monitored using excitation and emission wavelengths of 545 and 595 nm, respectively, on a Cary Eclipse fluorescence spectrophotometer in white 96-well plates. The amount of ethidium bromide-DNA complex fluorescence was used to estimate the ability of compounds to bind DNA, and therefore displace the fluorescent intercalator (ethidium bromide).
# In Equation 4, Fc is the fluorescence in the presence of the compound, F(−) is the average DMSO-only negative controls, and F(+) is the average positive controls (100 μM berenil). EC50 values were from a normalized dose-response curve.
# These twelve hits were then subjected to a counterscreen designed to independently identify DNA binding compounds using a modified fluorescent intercalator displacement (FID) assay (Boger, et al. (2001) supra). The FID assay used ethidium bromide to judge a compound's ability to bind DNA and was based on the assumption that a DNA binding compound would displace a fluorescent DNA intercalating agent, leading to an observable decrease in observed fluorescence. Compounds were tested at 1.5 μM in the presence of the 25 base pair substrate used in the helicase assays.
# [2] = target: T1, HCV NS3 helicase NS3h_1b(con1); assay: MBHA screen of NCI mechanistic set library at 20 μM (percent inhibition, compound interference); type: biochemical; settings: compounds at 20 μM; for Inh. (%) (Inhibition): calculated from Equation 1
# In short: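 Molecular beacon-based DNA unwinding assay; compounds screened at 20 μM in triplicate, with DMSO-only negative and 500 nM dT20 positive controls. Fluorescence (ex 643/em 670 nm) was read before and 30 min after adding ATP to 1 mM. Percent inhibition came from the change relative to DMSO controls; interference from pre-ATP fluorescence versus DMSO controls.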
# [3] = assay interference calculated with Equation 2 (fluorescence vs DMSO-only controls before ATP)
# [4] = MBHA with DNA substrate, assay interference calculated with Equation 2
Compound,Inh. (%) (Inhibition) ([2]; MBHA with a DNA substrate),"Int.* (Ratio) (Interference) [2, 3]","Int.* (Ratio) (Interference) [2, 4]",Inh. (%) (Inhibition) ([2]; MBHA with DNA substrate),further results
"Cc1c2ccncc2c(C)c2c1[nH]c1ccccc12 [ellipticine, reference compound]",–,–,–,–,IC50 [1]: 5.6 ± 0.8 µM
"N=C(N)c1ccc(N=NNc2ccc(C(=N)N)cc2)cc1 [Berenil, reference compound]",–,–,–,–,IC50 (MBHA DNA substrate): 1.6 ± 0.1 µM
Nc1ncnc2c1nnn2[C@@H]1O[C@H](CO)[C@@H](O)[C@H]1O [Compound 72961],8.5,0.98,–,–,–
COC(=O)C[S+]([O-])c1ccccc1 (stereo not drawn) [Compound 620050],−3.3,0.96,–,–,–
CN(C)[C@H]1CCC2[C@@H]3CCC4C[C@@H](NC(=O)NC(Cc5ccccc5)c5nccs5)CC[C@]4(C)C3CC[C@@]21C (stereo partly drawn) [Compound 647889],–,–,0.89,1.6,–
CC[C@@]12CCCN3CC[C@]4(c5cccc(OC)c5N(C(C)=O)[C@@H]4CC1)[C@H]32 [Compound 61811],–,–,0.91,−2.8,–
CC(=O)O[C@]1(C(C)=O)CC[C@H]2[C@@H]3C[C@H](C)C4=CC(=O)C=C[C@]4(C)[C@@]3(F)[C@@H](O)C[C@@]21C [Compound 47438],–,–,1.18,−12.2,–
CC(=O)/C(C)=N/NC(=O)c1ccccc1O [Compound 635441],–,–,0.92,16.7,–
C=C1C(C)C2C(Cc3ccccc3)NC(=O)C23C(OC(C)=O)/C=C/C(C)(O)CC(C)C/C=C/C3C1O (stereo not drawn) [Compound 305222],–,–,1.03,12.2,–
[Cl][Hg][c]1ccc2ccccc2c1 [Compound 174163],–,–,1.00,−18.5,–
O=C(CC(=O)c1ccccc1NC1=Cc2ccccc2C(=O)C1=O)C(=O)NC1=C(Cl)C(=O)c2ccccc2C1=O [Compound 641245],–,–,0.89,−13.7,–
CC(C)(O)CCC(O)C(C)(O)C1CCC2(O)C3=CC(=O)C4(O)CC(O)C(O)CC4(C)C3CCC12C.CC(C)(O)CCC(O)C(C)(O)C1CCC2(O)C3=CC(=O)C4CC(O)C(O)CC4(C)C3CCC12C (stereo not drawn) [Compound 115493],7.3,0.94,–,–,–
O=C(Nc1ccc(Sc2ccc(N=Nc3c(O)c(S(=O)(=O)O)cc4cc(S(=O)(=O)O)ccc34)cc2)cc1)c1ccc(N=Nc2c(O)ccc3c(S(=O)(=O)O)cc(S(=O)(=O)O)cc23)cc1 [Compound 76027],−5.5,0.85,–,–,–
O=C1/C(=C\c2ccccc2)CN(C(=O)/C=C/c2ccccc2)C/C1=C\c1ccccc1 [Compound 638634],−20.4,0.86,–,–,–
CC1OC1C(=O)C1(O)C(C)C(O)C23OC2(C(O)c2c(O)cccc2C3=O)C1O (stereo not drawn) [Compound 65380],11.3,1.03,–,–,–
COc1cc([C@@H]2c3cc4c(c(O)c3C[C@H]3COC(=O)[C@@H]32)OCO4)cc(OC)c1O [Compound 24817],–,–,0.99,15.4,–
COc1ccc(-c2cc(=O)c3c(OC)c(OC)c(OC)cc3o2)cc1 [Compound 53908],–,–,0.82,26.0,–
Cl.Nc1ccc2cc3ccc(N)cc3nc2c1 [Compound 605756],–,–,0.33,14.1,–

# Now from value to molecule, other results behind:
Inh. (%) (Inhibition) ([2]; MBHA with a DNA substrate),"Int.* (Ratio) (Interference) [2, 3]","Int.* (Ratio) (Interference) [2, 4]",Inh. (%) (Inhibition) ([2]; MBHA with DNA substrate),Compound,further results
−6.8,0.96,–,–,O=C(c1ccccc1)C1OC12C(=O)Nc1c(Cl)cc(Cl)cc12 (stereo not drawn) [Compound 635306],–
–,–,0.99,−17.6,Cc1c(Cl)cccc1NC(=O)CC1Sc2ccccc2NC1=O (stereo not drawn) [Compound 634396],–
–,–,0.97,−14.5,Cc1ccc(NC(=O)c2cccc([N+](=O)[O-])c2O)c(C)c1 [Compound 79456],–
–,–,0.80,4.4,O=C(N=Nc1c(O)[nH]c2c(Cl)cc(Cl)cc12)c1ccccc1O [Compound 320864],–
–,–,0.87,33.4,COc1ccc(/C=C2/C(=O)N(C(=O)c3ccccc3O)N=C2C)cc1 [Compound 652174],–
–,–,0.90,1.2,CC(=O)c1sc2c(c1OC(=O)c1ccc(Cl)cc1Cl)c(=O)n(-c1ccccc1)c(=S)n2-c1ccccc1 [Compound 671136],–
–,–,1.11,5.9,O=C(CC1(O)C(=O)Nc2c(Cl)cc(Cl)cc21)c1ccc([N+](=O)[O-])cc1 (stereo not drawn) [Compound 635326],–
−34.2,0.95,–,–,O=C1C=C(Nc2ccccc2C(=O)CC(=O)C(=O)Nc2ccc(Cl)cc2)c2ccccc2C1=O [Compound 641253],–
–,–,0.89,15.6,O=C(CC1(O)C(=O)Nc2c(Cl)ccc(Cl)c21)c1ccc(Cl)cc1Cl (stereo not drawn) [Compound 635436],–
9.1,0.93,–,–,Cc1cccc(C)c1NC(=O)C(=O)C(c1ccccc1Cl)S(=O)(=O)Cc1ccccc1Cl (stereo not drawn) [Compound 657722],–
